# Experimental data taken from patent publication US20260224520A1, “ABC TRANSPORTER EXPRESSION PROMOTING AGENT, CHOLESTEROL EXCRETION PROMOTING AGENT, INFLAMMATORY CYTOKINE PRODUCTION INHIBITING AGENT, ANTI-INFLAMMATORY AGENT, AND ARTERIOSCLEROSIS PREVENTING AGENT” (MEIJI CO., LTD., priority 2022, published 2026).
# “Also recorded” adds a separate entry of the source.
# Key:
# [1] = system: Human macrophage-like THP-1 cells; assay: Cholesterol excretion promoting activity of fatty acids, fluorometry, 24 h pre-culture with the substance; assay type: cell-based; conditions: for cholesterol excretion promoting activity (in words): conclusion from Tables 5A and 8
# Experimental: Human macrophage-like THP-1 cells were seeded in a 96-well plate so as to be 2.0×10^5 cells/well, and allowed to differentiate for 72 hours. The medium was then replaced with RPMI 1640 medium containing 0.02% by mass of bovine serum albumin (BSA), 10 to 40 μg/mL (final concentration in the well) of 10-hydroxypalmitic acid (Angene) was added, and the cells were cultured for 24 hours. The medium was then replaced with Dulbecco's Modified Eagle Medium (DMEM) containing 0.02% by mass of BSA and 6 mM of sodium taurocholate, and the medium was recovered after 4 hours. The level of cholesterol excreted from the cells (the cholesterol level in the recovered medium) was measured in the same manner as in Example 1 to evaluate the cholesterol excretion promoting activity of 10-hydroxypalmitic acid (n=3).
# In the same manner as in Example 5A, the cholesterol excretion promoting activities of 10-hydroxypalmitic acid and other hydroxypalmitic acids (2-hydroxypalmitic acid (Tokyo Chemical Industry Co., Ltd.), 3-hydroxypalmitic acid (Sigma-Aldrich), 16-hydroxypalmitic acid (Tokyo Chemical Industry Co., Ltd.), and 10-hydroxypalmitic acid), which may be contained in Camembert cheese, as well as palmitic acid to which no hydroxyl group was added (Sigma) were evaluated (n=6 to 11).
# ABCG1 [2] = assay: ABCG1 mRNA expression level by real-time PCR in THP-1 cells; assay type: cell-based, Human; conditions: 20 μg/mL, 24 h; corrected with 18S ribosomal RNA; EtOH = 1; n=3
# Experimental: (§1) Since the cholesterol excretion promoting activity of 10-hydroxypalmitic acid was confirmed, the effect of 10-hydroxypalmitic acid on ABC transporters was evaluated. Specifically, human macrophage-like THP-1 cells were seeded in a 24-well plate so as to be 1.0×10^6 cells/well, and allowed to differentiate for 72 hours. The medium was then replaced with RPMI 1640 medium containing 0.02% by mass of bovine serum albumin (BSA), 20 μg/mL (final concentration in the well) of 10-hydroxypalmitic acid was added, the cells were cultured for 24 hours, then mRNA was extracted using RNeasy Minikit (Qiagen), reverse transcription was carried out using ReverTra Ace (Registered trademark) qPCR RT Master Mix with gDNA Remover (Toyobo), and the ABCA1 and ABCG1 mRNA expression levels were measured by real-time PCR using Thermal Cycler Dice TP800 (Takara). 18S ribosomal RNA was used as a control gene. The ABCA1 and ABCG1 mRNA expression levels were each corrected with the mRNA expression level of the control gene, and the ABC transporter expression promoting activity of 10-hydroxypalmitic acid was evaluated (n=3).
# ABCA1 [3] = assay: ABCA1 protein expression level by Western blotting in THP-1 cells; assay type: cell-based, Human; conditions: 20 μg/mL, 24 h; corrected with actin; DMSO = 1; n=3
# Experimental: (§2) The ABCA1 and ABCG1 protein expression levels were evaluated. Specifically, cells cultured in the same manner as in Example 6 were recovered, SDS-PAGE and blotting were carried out using the 10% minigel shown in Table 7A and, after blocking, the protein expression levels were measured by Western blotting using a primary antibody (anti-mouse monoclonal ABCA1 (KM3110) or anti-rabbit polyclonal ABCG1 (H65) (Novus)) and anti-actin (Sigma) as a loading control (n=3). The protein expression levels were quantified with CS Analyzer 4 […]. The ABCA1 and ABCG1 protein expression levels were each corrected with the actin protein expression level.
# ABCG1 [4] = assay: ABCG1 protein expression level by Western blotting in THP-1 cells; assay type: cell-based, Human; conditions: 20 μg/mL, 24 h; corrected with actin; DMSO = 1; n=3
# Experimental: as §2
# IL-1 = IL-1 mRNA expression level by real-time PCR in THP-1 cells with or without inflammation induction; assay type: cell-based, Human; conditions: 24 h, DMSO-control = 1
# Experimental: (§3) Human macrophage-like THP-1 cells were seeded in a 24-well plate so as to be 1.0×10^6 cells/well, and allowed to differentiate for 72 hours. The medium was then replaced with RPMI 1640 medium containing: 0.02% by mass of bovine serum albumin (BSA); either dimethyl sulfoxide (DMSO) or 20 μg/mL of 10-hydroxypalmitic acid; and either 50 μg/mL of oxidized LDL (oxLDL) (Invitrogen), 50 μg/mL of acetylated LDL (acLDL) (Invitrogen), 5 μM of T0901317+5 μM of 9-cis-retinoic acid (T0+RA), or 1 μg/mL of lipopolysaccharide (LPS) (Sigma), or replaced with RPMI 1640 medium (control) containing: 0.02% by mass of bovine serum albumin (BSA); and either DMSO or 20 μg/mL 10-hydroxypalmitic acid, but not containing any of oxLDL, acLDL, T0+RA, and LPS, and the macrophage-like cells were cultured for 24 hours to induce inflammation. The medium was then replaced with Dulbecco's Modified Eagle Medium (DMEM) containing 0.02% by mass of BSA and 6 mM of sodium taurocholate, and the cells were cultured for 4 hours. The cells were then recovered, and the mRNA expression levels of IL-1 and IL-6, which are inflammatory markers (inflammatory cytokines), were measured by real-time PCR in the same manner as in Example 6 (n=4 to 6).
# ABCA1 [5] = assay: ABCA1 mRNA expression level by real-time PCR in THP-1 cells; assay type: cell-based, Human; conditions: 20 μg/ml, 24 h; corrected with 18S ribosomal RNA; EtOH = 1; n=3
# Experimental: as §1
# [6] = system: Human macrophage-like THP-1 cells; assay: Cholesterol excretion promoting activity in an inflammation-induced state, fluorometry (Amplex Red); assay type: cell-based; conditions: for Cholesterol excretion level (Average # standard deviation): DMSO-control = 1, n=4
# Experimental: Human macrophage-like THP-1 cells were seeded in a 24-well plate so as to be 1.0×10^6 cells/well, and allowed to differentiate for 72 hours. The medium was then replaced with RPMI 1640 medium containing: 0.02% by mass of bovine serum albumin (BSA); either dimethyl sulfoxide (DMSO) or 20 μg/mL of 10-hydroxypalmitic acid; and either 50 μg/mL of oxidized LDL (oxLDL) (Invitrogen), 50 μg/mL of acetylated LDL (acLDL) (Invitrogen), 5 μM of T0901317+5 μM of 9-cis-retinoic acid (T0+RA), or 1 μg/mL of LPS (Sigma), or replaced with RPMI 1640 medium (control) containing: 0.02% by mass of BSA; and either DMSO or 20 μg/mL 10-hydroxypalmitic acid, but not containing any of oxLDL, acLDL, T0+RA, and LPS, and the macrophage-like cells were cultured for 24 hours to induce inflammation. The medium was then replaced with Dulbecco's Modified Eagle Medium (DMEM) containing 0.02% by mass of BSA and 6 mM of sodium taurocholate, and the cells were cultured for 4 hours. The medium was then recovered, and the level of cholesterol excreted from the cells (the cholesterol level in the recovered medium) was measured by fluorometry using Amplex Red to evaluate the cholesterol excretion promoting activity of 10-hydroxypalmitic acid in an inflammation-induced state (n=4).
# [7] = system: Human macrophage-like THP-1 cells; assay: Cholesterol excretion promoting activity of 10-hydroxypalmitic acid by colorimetry; assay type: cell-based
# Experimental: The cholesterol excretion promoting activity of 10-hydroxypalmitic acid was also examined by colorimetry. Specifically, human macrophage-like THP-1 cells were seeded in a 6-well plate so as to be 4.0×10^6 cells/well, and allowed to differentiate for 72 hours. The medium was then replaced with RPMI 1640 medium containing 0.02% by mass of bovine serum albumin (BSA), 20 μg/mL (final concentration in the well) of 10-hydroxypalmitic acid (Angene) was added, and the cells were cultured for 24 hours and then recovered. Lipids were then extracted using methanol and chloroform, and the level of cholesterol excreted from the cells (the cholesterol level in the recovered medium) was measured using a free cholesterol assay kit (Fujifilm Wako Pure Chemical Corporation) to evaluate the cholesterol excretion promoting activity of 10-hydroxypalmitic acid (n =3).
# IL-6 = IL-6 mRNA expression level by real-time PCR in THP-1 cells with or without inflammation induction; assay type: cell-based, Human; conditions: 24 h, DMSO-control = 1
# Experimental: as §3
# [8] = same manner as Example 5A, concentration not given, EtOH = 1, n=6 to 11
# [9] = 20 μg/mL with T0 + RA (5 μM each)
# [10] = 20 μg/mL, Control (no inducer), n=4 to 6
smiles,measurement,setting,value
"CCCCCCCCCCCCCCC(O)C(=O)O (stereo not drawn) [2-Hydroxypalmitic acid, 2-hydroxypalmitic acid, reference compound]",Cholesterol excretion level (Average ± standard deviation),[1]; [8],0.970 ± 0.175 relative value
O=C(O)CCCCCCCCCCCCCCCO [16-hydroxypalmitic acid],cholesterol excretion promoting activity (in words),[1],had a cholesterol excretion promoting activity
same,Cholesterol excretion level (Average ± standard deviation),[1]; [8],1.406 ± 0.982 relative value
"CCCCCCCCCCCCCC(O)CC(=O)O (stereo not drawn) [3-Hydroxypalmitic acid, 3-hydroxypalmitic acid, reference compound]",Cholesterol excretion level (Average ± standard deviation),[1]; [8],1.094 ± 0.271 relative value
CCCCCCC(O)CCCCCCCCC(=O)O (stereo not drawn) [10-hydroxypalmitic acid],ABCG1 mRNA expression level (Average ± standard deviation),ABCG1 [2],2.953 ± 0.195 relative value
same,ABCA1 protein expression level (Average ± standard deviation),ABCA1 [3],2.607 ± 0.559 relative value
same,ABCG1 protein expression level (Average ± standard deviation),ABCG1 [4],2.541 ± 0.815 relative value
same,IL-1 mRNA expression level (Average ± standard deviation),IL-1; 20 μg/mL with 1 μg/mL LPS,0.450 ± 0.390 relative value
same,IL-1 mRNA expression level (Average ± standard deviation),IL-1; 20 μg/mL with 50 μg/mL acLDL,0.389 ± 0.067 relative value
same,IL-1 mRNA expression level (Average ± standard deviation),IL-1; 20 μg/mL with 50 μg/mL oxLDL,0.419 ± 0.184 relative value
same,IL-1 mRNA expression level (Average ± standard deviation),IL-1; [9],0.185 ± 0.059 relative value
same,IL-1 mRNA expression level (Average ± standard deviation),IL-1; [10],0.200 ± 0.046 relative value
same,ABCA1 mRNA expression level (Average ± standard deviation),ABCA1 [5],2.870 ± 0.267 relative value
same,Cholesterol excretion level (Average # standard deviation),[6]; 20 μg/mL with 1 μg/mL LPS,9.320 ± 3.477 relative value
same,Cholesterol excretion level (Average # standard deviation),[6]; 20 μg/mL with 50 μg/mL acLDL,1.821 ± 0.426 relative value
same,Cholesterol excretion level (Average # standard deviation),[6]; 20 μg/mL with 50 μg/mL oxLDL,2.389 ± 0.628 relative value
same,Cholesterol excretion level (Average # standard deviation),[6]; [9],33.159 ± 10.920 relative value
same,Cholesterol excretion level (Average # standard deviation),"[6]; 20 μg/mL, Control (no inducer)",3.588 ± 1.302 relative value
same,cholesterol excretion promoting activity (in words),"[6]; inflammation-induced state or ABC transporters induced by T0+RA, conclusion from Table 10",had a cholesterol excretion promoting activity
same,Cholesterol excretion level (Average ± standard deviation),"[7]; 20 μg/mL, 24 h, DMSO = 1, n=3",1.569 ± 0.317 relative value
same,cholesterol excretion promoting activity (in words),[7]; conclusion from Table 5B,confirmed
same,IL-6 mRNA expression level (Average ± standard deviation),IL-6; 20 μg/mL with 1 μg/mL LPS,0.530 ± 0.107 relative value
same,IL-6 mRNA expression level (Average ± standard deviation),IL-6; 20 μg/mL with 50 μg/mL acLDL,0.363 ± 0.149 relative value
same,IL-6 mRNA expression level (Average ± standard deviation),IL-6; 20 μg/mL with 50 μg/mL oxLDL,0.167 ± 0.029 relative value
same,IL-6 mRNA expression level (Average ± standard deviation),IL-6; [9],0.095 ± 0.050 relative value
same,IL-6 mRNA expression level (Average ± standard deviation),IL-6; [10],0.104 ± 0.032 relative value
same,Cholesterol excretion level (Average ± standard deviation),"[1]; 10 μg/mL, 24 h, DMSO = 1, n=3",1.553 ± 0.102 relative value
same,Cholesterol excretion level (Average ± standard deviation),"[1]; 20 μg/mL, 24 h, DMSO = 1, n=3",1.685 ± 0.138 relative value
same,Cholesterol excretion level (Average ± standard deviation),"[1]; 30 μg/mL, 24 h, DMSO = 1, n=3",2.313 ± 0.479 relative value
same,Cholesterol excretion level (Average ± standard deviation),"[1]; 40 μg/mL, 24 h, DMSO = 1, n=3",1.872 ± 0.374 relative value
same,cholesterol excretion promoting activity (in words),[1],concentration-dependent cholesterol excretion promoting activity; also recorded: had a cholesterol excretion promoting activity
same,Cholesterol excretion level (Average ± standard deviation),[1]; [8],1.331 ± 0.500 relative value
"CCCCCCCCCCCCCCCC(=O)O [Palmitic acid, palmitic acid, reference compound]",Cholesterol excretion level (Average ± standard deviation),[1]; [8],0.823 ± 0.268 relative value
